The text below walks through data of a melting point compilation (Tetko et al.; mined from patent text by program, amines drawn as free bases though some values may be those of a salt).

In turn, `CCCc1nnc2c(=O)n(C)c3ccc(OC)cc3n12` came in with a melting point of 219 to 220 °C.

Take `COc1ccc(C(=O)O)cc1OC1C=CCC1` (centres undefined): the melting point is 160 to 163 °C.

As to `Nc1nc(NC2Cc3ccccc3N(C(=O)c3ccccc3)C2)c2cn[nH]c2n1` (centres undefined), the melting point was in the range of 155 to 164 °C.

Regarding `CN1CC=C(C2=Cc3ccccc3Oc3ccc(Br)cc32)CC1`, the melting point was in the range of 144 to 146 °C.

`O=C(Nc1nc2c(s1)CC(N1CCN(c3ccccn3)CC1)CC2)c1ccccc1` (centres undefined) showed a melting point of 230 to 232 °C.

Consider `NNC(=O)c1cccc(C(=O)N(NC(=O)c2ccccc2)C(=O)c2ccccc2)c1`, for which the melting point was in the range of 297 to 299 °C.

Regarding `Cc1[nH]c2ccc(S(=O)(=O)c3ccc(C(F)(F)F)cc3)cc2c1CCNC(=O)OC(C)(C)C`, the melting point fell in the range of 162 to 164 °C.

The compound `CC(=O)OC12Oc3c(C(C)(C)C)cc(C(C)(C)C)cc3C1(OC(C)=O)C(=O)c1ccccc12` (centres undefined) showed a melting point of 242 to 247 °C.

Regarding `N#CC1=C(c2ccccc2)Nc2n[nH]cc2C1c1cccc(C#N)c1Br` (centres undefined), the melting point is more than 270 °C.

As to `CC(=Nc1ccc(O)cc1C)c1ccccc1O`, the melting point lay within 144 to 156 °C.

`CCOC(=O)C1(C(=O)OCC)CCC2(c3cc(OC)c(OC)cc3CCN2C(C)=O)C(C2c3cc(OC)c(OC)cc3CCN2CC)C1` (centres undefined) had a melting point of 142 to 144 °C.

For `Nc1nc2c(cnn2CCc2ccccc2)c2nc(-c3ccco3)nn12`, the melting point was in the range of 225 to 226 °C.

In turn, `C#CCCCn1ncc2c(OCC)c(C(=O)OCC)cnc21` yielded a melting point of 84 to 85.5 °C.

The compound `CS(=O)(=O)c1ccc(-c2c(-c3ccccc3)nc3n2CCS3)cc1` returned a melting point of 177 to 179 °C.

Regarding `[O-][N+]1=C(c2ccccc2)c2cc(Cl)ccc2CCC1`, the melting point lay within 120 to 125 °C.

As for `COc1ccccc1C(=C1CN(C(c2ccccc2)c2ccccc2)C1)S(C)(=O)=O`, the melting point is 204 °C.

`CC(=O)CCC1CCC2C(C=CC3=CCCc4c3n2c2ccncc42)C1` (centres undefined) showed a melting point of 102 °C.

In turn, `COc1ccc(Oc2ncnc(-c3ccc(C(F)(F)F)cc3F)c2N)cc1` showed a melting point of 129 to 130 °C.

In turn, `O=C1CCCN1C(c1ccccc1Cl)N1CCN(c2ncccn2)CC1` (centres undefined) gave a melting point of 166 to 177 °C.

`CC(C)Oc1c(CO)cnc2c(C(F)(F)F)cccc12` came in with a melting point of 73 to 74 °C.

`COC(=O)C(=O)NCCc1ccc(OCc2ccccc2)c(OCc2ccccc2)c1` registered a melting point of 84 °C.

As for `Cc1ccc(C)c(OCc2ccccc2C(C#N)=NOC(F)F)c1`, the melting point lay within 104 to 108 °C.

For the compound `COc1ccc2nc(-c3cccc(F)c3)cc(OP(=O)(O)O)c2c1OP(=O)(O)O`, the melting point was 120 to 122 °C.

In turn, `Cc1cc(O)c(SCCC(C)C)c(=O)o1` had a melting point of 81 to 82 °C.

`COc1ccc(C(=C/C=C/C(=O)NCCCCc2cncc3ccccc23)c2ccc(OC)cc2)cc1`: the melting point was in the range of 91 to 93 °C.

Consider `OCC1OC(c2ccc(F)c(Cc3ccc(-c4nccs4)s3)c2)C(O)C(O)C1O` (centres undefined), for which the melting point was determined as 162 °C.

Turning to `CCC(=O)OCOC(=O)C1=C(C)NC(C)=C(C(=O)OC)C1c1cccc(Cl)c1Cl` (centres undefined), the melting point lay within 124 to 126 °C.

In turn, `COc1ccc2c(c1)Cc1cc(F)ccc1C(=O)C2` gave a melting point of 129 to 130 °C.

The compound `Cc1cc(CCCCCCCOc2ccc(C(=O)O)cc2)on1` registered a melting point of 129 to 130 °C.

`CN(C)C=C(C=O)c1cccc(F)c1` yielded a melting point of 42 to 43.5 °C.

Regarding `CC(C)(C)OC(=O)NCCCCC/C=C/C(=O)O`, the melting point fell in the range of 76 to 78 °C.

With `N#CCCCCCCCCNS(=O)(=O)c1cccc(Cl)c1`, the melting point fell in the range of 42 to 43 °C.

The compound `Cc1ccc(-c2ccc(NN)nn2)c(OCC(O)CNC(C)(C)C)c1` (centres undefined) showed a melting point of 145 to 155 °C.

`O=C(O)Cc1ccc(O)c(Cl)c1Cl` had a melting point of 105 to 106 °C.

As for `COC(=O)c1cnc(C(=O)O)cn1`, the melting point fell in the range of 183 to 185 °C.

Consider `CN1CCN(C(=O)COc2ccc(N)cc2)CC1`, for which the melting point lay in the range of 71 to 73 °C.

Consider `O=C(O)C1CC(=O)N(Cc2ccccc2)C1c1c(Cl)cccc1Cl` (centres undefined), for which the melting point fell in the range of 179 to 181 °C.

Compound `Cc1ccc(CNc2nc(Cl)nc(Nc3ccc4[nH]c(=O)[nH]c4c3)n2)o1` had a melting point of 164 to 166 °C.

As to `COc1cccc2c1nc(C(F)F)n2-c1nc(Nc2cncnc2)nc(N2CCOCC2)n1`, the melting point fell in the range of 293 to 295 °C.

In the case of `COc1cc2c3ccc(OC)c(OC)c3n(Cc3ccc(C#N)cc3)c2cc1OC`, the melting point lay in the range of 147 to 148 °C.

For the compound `CC(=O)OC1CSC(Oc2cccc(-c3cc(C)ccn3)c2)C(OC(C)=O)C1OC(C)=O` (centres undefined), the melting point amounted to 116 °C.

As to `CSc1c(CC(=O)O)ccc2c3ccccc3n(Cc3ccccc3)c12`, the melting point lay in the range of 182 to 183 °C.

For the compound `CCOC(=O)c1cc(-c2csc(N(C)S(=O)(=O)c3ccccc3)n2)c(=O)[nH]c1C`, the melting point was 231 to 234 °C.

Consider `COc1ccc(CCl)c(F)c1OC`, for which the melting point lay in the range of 44.5 to 47.5 °C.

On to `O=C(CCCCN1CCOCC1)c1ccc2c(c1)C(=O)c1cc(C(=O)CCCCN3CCOCC3)ccc1-2`, for which the melting point lay within 146 to 148 °C.

As to `Cc1ccccc1C(=O)Nc1ccc(C(=O)N2CCCC(OCC(=O)N3CCSCC3)c3ccccc32)cc1` (centres undefined), the melting point fell in the range of 235 to 237 °C.

Regarding `CC(=O)Nc1nn(C)c2c1sc1cc(C)ccc12`, the melting point lay in the range of 253 to 255 °C.

Consider `COc1ccc(C2=C(NC(=O)Nc3c(C)cccc3C(C)C)CN(C)c3ccc(Cl)cc32)cc1OC`, for which the melting point was in the range of 200 to 201 °C.

In turn, `O=C(O)Cc1ccc(OCCNCC(O)c2ccccc2)cc1` (centres undefined) came in with a melting point of 183 to 184 °C.

In turn, `COc1ccc(-c2nnc(OC)nc2-c2ccc(OC)cc2)cc1` displayed a melting point of 135 to 137 °C.

Consider `Clc1ccc(C(=NN=Cc2cccnc2)SSC(=NN=Cc2cccnc2)c2ccc(Cl)cc2)cc1`, for which the melting point lay within 143 to 145 °C.

The compound `O=[N+]([O-])c1ccc(-n2cncn2)cc1F` registered a melting point of 90 to 91 °C.

`Cc1cccc(Cl)c1C(=O)N[C@@H](Cc1ccc(NC(=O)c2c(Cl)cccc2Cl)cc1)C(=O)O` came in with a melting point of 212 to 215 °C.

`CC1CCC(Nc2nccc(Oc3ccc(NC(=O)c4cc(F)cc(N5CCOCC5)c4)c4ccccc34)n2)CC1` (centres undefined) came in with a melting point of 116 to 117 °C.

As for `CCN(CC)C(=O)Oc1cc(-c2cccc(C(F)(F)F)c2)nc2ccccc12`, the melting point was determined as 96 °C.

As to `Cc1nn(C)c2cc(-c3ccc(F)cc3)nc(-c3ccc4c(c3)OCO4)c12`, the melting point is 166 to 168 °C.

Compound `Cn1nc(Cl)cc(Nc2ccccn2)c1=O` gave a melting point of 201 to 202 °C.

The compound `Cc1cc2ccccc2n1-c1ccc(OCc2ccccc2)cc1` registered a melting point of 95 to 96 °C.

`COC(=O)/C=C/c1cncc(-c2ccc(C)cc2)c1` registered a melting point of 141 to 144 °C.

`CCN(CC)C(=O)c1cc(-c2ccc(OC)cc2)ccc1-c1ccccc1` showed a melting point of 117 to 118 °C.

`OCC1OC(c2ccc(Cl)c(Cc3cc4ccccc4s3)c2)C(O)C(O)C1O` (centres undefined): the melting point lay in the range of 153 to 154 °C.

Consider `Cc1nc(C(C)(C)C)c(O)c(C(C)(C)C)n1`, for which the melting point lay within 62 to 65 °C.

In turn, `Cc1nn2c(-c3cccnc3)ccnc2c1C#N` had a melting point of 245 to 246 °C.

As to `C=CCn1c(=O)c2[nH]c(/C=C/c3cc(OC)c(OC)c(OC)c3)nc2n(CC=C)c1=O`, the melting point was in the range of 253 to 255 °C.

The compound `CC1=NOCC1(C)S(=O)(=O)n1nc(Cl)nc1-c1ccccc1` (centres undefined) returned a melting point of 70 to 74 °C.

On to `CCOC(=O)CCCCCn1c(C(=O)O)cc2ccccc21`, for which the melting point came out at 62 °C.

In turn, `CC(C)C(NC(=O)C(Cc1ccccc1)NC(=O)OCc1ccccc1)C(=O)Nc1n[nH]c(=S)s1` (centres undefined) showed a melting point of 170 to 174 °C.

In the case of `COC(=O)c1cc2c(nc1C)C(=O)CCC2`, the melting point lay in the range of 180 to 181 °C.

The compound `CCNCC1CCN(c2c(F)cc3c(=O)c(C(=O)O)cn(C4CCC4)c3c2F)C1` (centres undefined) registered a melting point of 223 to 225 °C.

The compound `CCOCc1nc2c(N)nc3ccccc3c2n1CC(C)(C)OCCS(=O)(=O)c1ccccc1` came in with a melting point of 187 to 189 °C.

In turn, `CC1Nc2ccc(-c3csc(C#N)c3)cc2C(C)(C)O1` (centres undefined) displayed a melting point of 175 to 176 °C.

In turn, `CCCCCCCC1OC1CO` (centres undefined) returned a melting point of 50 to 51 °C.

Consider `COc1nc2cc([N+](=O)[O-])c(C)c(C(=O)N3CCNCC3)c2nc1OC`, for which the melting point fell in the range of 150 to 152 °C.

In turn, `Fc1ccc(CCCC(c2ccc(F)cc2)c2c[nH]cn2)cc1` (centres undefined) yielded a melting point of 135 to 137 °C.

In turn, `COC(=O)c1ccccc1C1CC(c2ccccc2)=NO1` (centres undefined) gave a melting point of 93.5 to 95 °C.

Compound `Cc1ccc2c(c1)c(-c1ccc(F)cc1)c(C)n2C1CCN(CCN2CCNC2=O)CC1` yielded a melting point of 188 to 190 °C.

With `CCOC(=O)c1cnc2c(-c3ccc(Cc4cccc(OC)c4)c(OC)c3)cnn2c1O`, the melting point is 226 to 238 °C.

The compound `CC(=O)OCCCC1Oc2c(C)c(C)c(OC(C)=O)c(C)c2S1` (centres undefined) came in with a melting point of 78 to 79 °C.

Compound `Cc1nc(C)c(Cl)c(NCc2nccc(SCCCSCCn3c([N+](=O)[O-])cnc3C)c2C)n1` had a melting point of 145 to 147 °C.

In turn, `CC(C)(C)N(CCOCC#Cc1cncs1)C(=O)C(=O)O` displayed a melting point of 104 to 105 °C.

In turn, `Oc1cc2ccc(CCCCCl)cc2cc1O` returned a melting point of 54 to 59 °C.

Consider `CN(CCN1CCNC1=C(C#N)C#N)Cc1ccc(CN2CCCCC2)o1`, for which the melting point lay within 140 to 143 °C.

`COC=C(C(=O)OC)c1csc2ccc(CBr)cc12` displayed a melting point of 124 to 125 °C.

In the case of `COC(=O)C1=CC[C@H]2[C@@](C=O)(CCC3C(C)(C)CCC[C@@]32C)C(=O)C1` (some centres undefined), the melting point lay within 86 to 88 °C.

For `CC(Cl)c1ccc(C(=O)c2cccs2)cc1` (centres undefined), the melting point is 60 °C.

In turn, `NC(=O)c1[nH]cnc1OC1OC(COCc2ccccc2)C(OCc2ccccc2)C1OCc1ccccc1` (centres undefined) gave a melting point of 215 to 216 °C.

The compound `Cn1nnnc1-c1cn(C)c2cc(F)ccc2c1=O` returned a melting point of 264 to 267 °C.

The compound `Cc1c(Cc2cccc(C(F)(F)F)c2)oc2c(-c3cccc(C(=O)NCC(N)=O)c3)cccc12` displayed a melting point of 194 to 195 °C.

As to `COC(=O)c1c(C(F)F)nc(C(F)(F)F)c(N=COCC2CO2)c1CC(C)C` (centres undefined), the melting point was in the range of 41 to 43 °C.

One may read the melting point as the temperature of the solid-liquid transition.
